According to US10239869B2, “Sulfonamide compounds as voltage-gated sodium channel modulators” (LUPIN LIMITED, priority 2015, dated 2019):
Where two headings read alike, the source gives them in different places.

What was measured:
Nav 1.5 = Nav 1.5 (Homo sapiens (Human), UniProt Q14524); assay: Inhibition of sodium channels, Red Membrane Potential Dye FLIPR assay, veratridine depolarization; format: cell-based; settings: HEK-293 cells overexpressing the channel
Nav 1.7 = Nav 1.7 (Homo sapiens (Human), UniProt Q15858); assay: as above; format: cell-based; settings: HEK-293 cells overexpressing the channel
[1] = read-out: Nav1.5 IC50 (bound given in μM)

Chain of Nav 1.7 (Q15858 whole entry): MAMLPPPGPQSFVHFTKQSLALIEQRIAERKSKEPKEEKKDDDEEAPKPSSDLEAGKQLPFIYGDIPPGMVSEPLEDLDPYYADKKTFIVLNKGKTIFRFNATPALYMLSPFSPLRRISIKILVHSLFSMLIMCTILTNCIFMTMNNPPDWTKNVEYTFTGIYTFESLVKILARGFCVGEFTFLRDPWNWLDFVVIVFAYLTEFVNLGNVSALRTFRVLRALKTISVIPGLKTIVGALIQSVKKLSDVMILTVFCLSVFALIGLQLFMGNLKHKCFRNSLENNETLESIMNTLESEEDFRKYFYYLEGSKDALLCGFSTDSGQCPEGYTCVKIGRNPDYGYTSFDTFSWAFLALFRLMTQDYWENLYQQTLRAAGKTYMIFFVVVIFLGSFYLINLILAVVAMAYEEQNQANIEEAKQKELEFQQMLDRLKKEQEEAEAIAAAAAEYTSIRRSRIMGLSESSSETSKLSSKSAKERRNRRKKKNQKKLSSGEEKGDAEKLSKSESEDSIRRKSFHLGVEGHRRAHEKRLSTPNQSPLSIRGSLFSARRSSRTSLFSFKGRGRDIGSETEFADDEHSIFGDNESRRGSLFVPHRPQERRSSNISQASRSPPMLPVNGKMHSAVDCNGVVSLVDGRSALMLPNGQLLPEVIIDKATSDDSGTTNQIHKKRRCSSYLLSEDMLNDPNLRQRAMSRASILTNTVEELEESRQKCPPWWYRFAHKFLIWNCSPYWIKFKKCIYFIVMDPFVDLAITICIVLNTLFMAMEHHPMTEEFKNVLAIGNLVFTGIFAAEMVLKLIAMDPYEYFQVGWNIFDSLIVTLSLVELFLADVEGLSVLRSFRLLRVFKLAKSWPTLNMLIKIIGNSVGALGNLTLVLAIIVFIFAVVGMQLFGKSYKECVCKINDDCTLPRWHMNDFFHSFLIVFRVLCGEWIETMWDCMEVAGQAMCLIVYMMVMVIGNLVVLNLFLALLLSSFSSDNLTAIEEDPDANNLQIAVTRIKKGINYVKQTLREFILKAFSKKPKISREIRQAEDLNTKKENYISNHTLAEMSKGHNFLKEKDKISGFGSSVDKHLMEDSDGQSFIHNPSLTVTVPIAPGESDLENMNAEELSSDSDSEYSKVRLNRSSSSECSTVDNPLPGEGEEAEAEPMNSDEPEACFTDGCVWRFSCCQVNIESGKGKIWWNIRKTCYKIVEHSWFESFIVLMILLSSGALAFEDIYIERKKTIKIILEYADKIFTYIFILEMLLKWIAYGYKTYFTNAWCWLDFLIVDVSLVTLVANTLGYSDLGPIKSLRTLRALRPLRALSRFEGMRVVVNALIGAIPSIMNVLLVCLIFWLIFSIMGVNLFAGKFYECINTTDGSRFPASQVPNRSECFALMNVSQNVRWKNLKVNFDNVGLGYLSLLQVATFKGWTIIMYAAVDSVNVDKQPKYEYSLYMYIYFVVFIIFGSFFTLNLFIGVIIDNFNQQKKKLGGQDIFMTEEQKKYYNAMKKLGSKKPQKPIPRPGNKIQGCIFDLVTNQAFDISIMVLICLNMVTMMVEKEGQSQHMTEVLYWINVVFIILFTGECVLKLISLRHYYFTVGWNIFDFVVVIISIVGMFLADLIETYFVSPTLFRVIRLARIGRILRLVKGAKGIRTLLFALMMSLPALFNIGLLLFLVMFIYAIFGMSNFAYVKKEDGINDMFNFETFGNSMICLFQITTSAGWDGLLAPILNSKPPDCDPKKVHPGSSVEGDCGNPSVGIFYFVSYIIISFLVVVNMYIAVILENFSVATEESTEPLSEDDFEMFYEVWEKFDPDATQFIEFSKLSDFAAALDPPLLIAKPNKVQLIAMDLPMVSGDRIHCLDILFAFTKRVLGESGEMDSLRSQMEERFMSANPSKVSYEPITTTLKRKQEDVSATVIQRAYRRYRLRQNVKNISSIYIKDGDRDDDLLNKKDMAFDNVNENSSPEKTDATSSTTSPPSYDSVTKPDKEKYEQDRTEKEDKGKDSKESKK
Chain of Nav 1.5 (Q14524 whole entry): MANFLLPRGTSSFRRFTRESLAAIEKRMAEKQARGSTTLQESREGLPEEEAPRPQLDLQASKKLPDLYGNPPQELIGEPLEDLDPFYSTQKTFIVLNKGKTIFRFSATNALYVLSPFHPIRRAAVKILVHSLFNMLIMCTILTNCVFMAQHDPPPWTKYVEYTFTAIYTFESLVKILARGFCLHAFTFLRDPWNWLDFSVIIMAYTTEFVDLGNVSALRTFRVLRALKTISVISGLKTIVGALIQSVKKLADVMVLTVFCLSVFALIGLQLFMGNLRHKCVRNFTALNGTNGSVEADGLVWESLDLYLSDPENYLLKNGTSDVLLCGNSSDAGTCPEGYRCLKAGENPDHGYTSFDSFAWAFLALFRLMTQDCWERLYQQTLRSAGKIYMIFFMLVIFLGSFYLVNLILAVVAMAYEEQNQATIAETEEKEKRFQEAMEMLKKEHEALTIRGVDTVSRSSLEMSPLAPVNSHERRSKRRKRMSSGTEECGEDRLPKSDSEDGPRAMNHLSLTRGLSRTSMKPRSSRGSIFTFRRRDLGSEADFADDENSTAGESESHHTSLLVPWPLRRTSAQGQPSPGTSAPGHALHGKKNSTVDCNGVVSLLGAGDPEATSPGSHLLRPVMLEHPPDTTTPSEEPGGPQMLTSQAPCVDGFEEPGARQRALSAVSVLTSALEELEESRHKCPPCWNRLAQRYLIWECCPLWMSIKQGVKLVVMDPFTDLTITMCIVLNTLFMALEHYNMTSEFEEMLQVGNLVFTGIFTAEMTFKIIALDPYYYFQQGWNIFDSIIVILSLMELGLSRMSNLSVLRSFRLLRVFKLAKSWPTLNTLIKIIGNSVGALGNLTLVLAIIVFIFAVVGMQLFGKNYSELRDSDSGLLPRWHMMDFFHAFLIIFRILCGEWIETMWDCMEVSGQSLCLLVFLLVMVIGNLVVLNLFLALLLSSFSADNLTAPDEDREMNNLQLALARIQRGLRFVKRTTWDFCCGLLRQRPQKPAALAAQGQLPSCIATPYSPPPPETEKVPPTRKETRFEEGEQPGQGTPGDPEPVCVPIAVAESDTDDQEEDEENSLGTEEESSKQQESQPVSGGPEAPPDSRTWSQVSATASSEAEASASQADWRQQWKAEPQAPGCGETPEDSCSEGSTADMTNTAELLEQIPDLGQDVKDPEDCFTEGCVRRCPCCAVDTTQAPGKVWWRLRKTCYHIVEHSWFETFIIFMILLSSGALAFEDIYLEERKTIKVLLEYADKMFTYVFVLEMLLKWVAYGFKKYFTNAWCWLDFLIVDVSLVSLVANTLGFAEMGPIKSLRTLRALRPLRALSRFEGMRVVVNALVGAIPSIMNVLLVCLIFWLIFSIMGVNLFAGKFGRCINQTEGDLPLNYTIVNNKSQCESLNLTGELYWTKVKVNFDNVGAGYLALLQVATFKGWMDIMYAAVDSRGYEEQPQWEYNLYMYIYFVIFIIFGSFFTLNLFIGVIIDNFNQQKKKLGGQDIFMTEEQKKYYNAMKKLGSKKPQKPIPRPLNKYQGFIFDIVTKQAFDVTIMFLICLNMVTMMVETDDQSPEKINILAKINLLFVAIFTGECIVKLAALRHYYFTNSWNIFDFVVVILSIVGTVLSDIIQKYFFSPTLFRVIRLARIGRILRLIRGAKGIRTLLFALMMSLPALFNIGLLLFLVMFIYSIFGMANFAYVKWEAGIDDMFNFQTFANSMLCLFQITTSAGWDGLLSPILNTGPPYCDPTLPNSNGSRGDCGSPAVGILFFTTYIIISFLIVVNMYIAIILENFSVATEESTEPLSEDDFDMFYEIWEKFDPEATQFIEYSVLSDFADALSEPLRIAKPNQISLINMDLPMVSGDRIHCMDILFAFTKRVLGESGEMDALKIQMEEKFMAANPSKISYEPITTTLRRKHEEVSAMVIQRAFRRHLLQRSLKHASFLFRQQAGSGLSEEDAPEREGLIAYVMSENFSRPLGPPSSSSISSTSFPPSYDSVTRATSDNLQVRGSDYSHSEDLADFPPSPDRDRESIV

SMILES	Nav1.5 % inhibition @ 10 μM (Nav 1.5)	IC50 (Nav 1.7; read-out: Nav1.7 IC50)	IC50 (Nav 1.5; [1])	also measured
O=S(=O)(Nc1ccncn1)c1ccc2c(c1)OCC[C@@H]2c1ccc(C(F)(F)F)cc1OC1CCOCC1 [Example-173, (R&S)—N-(pyrimidin-4-yl)-4-(2-((tetrahydro-2H-pyran-4-yl)oxy)-4-(trifluoromethyl)phenyl)chroman-7-sulfonamide]	63%	0.012 µM	–	–
O=S(=O)(Nc1cccnn1)c1ccc2c(c1)OCC[C@H]2c1ccc(C(F)(F)F)cc1OC1CCOCC1 [Example-174, (R&S)—N-(pyridazin-3-yl)-4-(2-((tetrahydro-2H-pyran-4-yl)oxy)-4-(trifluoromethyl)phenyl)chroman-7-sulfonamide]	–	2.46 µM	> 10 µM	–
O=S(=O)(Nc1cccnn1)c1ccc2c(c1)OCC[C@@H]2c1ccc(C(F)(F)F)cc1OC1CCOCC1 [Example-175, (R&S)—N-(pyridazin-3-yl)-4-(2-((tetrahydro-2H-pyran-4-yl)oxy)-4-(trifluoromethyl)phenyl)chroman-7-sulfonamide]	–	0.248 µM	–	IC50 (Nav 1.5; read-out: Nav1.5 IC50): 1.69 µM
O=S(=O)(Nc1cccc(F)n1)c1ccc2c(c1)OCC[C@H]2c1ccc(C(F)(F)F)cc1OC1CCOCC1 [Example-176, (R&S)—N-(6-fluoropyridin-2-yl)-4-(2-((tetrahydro-2H-pyran-4-yl)oxy)-4-(trifluoromethyl)phenyl)chroman-7-sulfonamide]	57%	1.31 µM	–	–
O=S(=O)(Nc1cccc(F)n1)c1ccc2c(c1)OCC[C@@H]2c1ccc(C(F)(F)F)cc1OC1CCOCC1 [Example-177, (R&S)—N-(6-fluoropyridin-2-yl)-4-(2-((tetrahydro-2H-pyran-4-yl)oxy)-4-(trifluoromethyl)phenyl)chroman-7-sulfonamide]	–	0.011 µM	–	IC50 (Nav 1.5; read-out: Nav1.5 IC50): 0.232 µM
O=S(=O)(Nc1ncccn1)c1ccc2c(c1)OCCC2c1ccc(C(F)(F)F)cc1O[C@H]1CCOC1 (stereo partly drawn) [Example-178, (R&S)—N-(pyrimidin-2-yl)-4-(2-(((S)-tetrahydrofuran-3-yl)oxy)-4-(trifluoromethyl)phenyl)chroman-7-sulfonamide]	–	0.149 µM	> 10 µM	–
O=S(=O)(Nc1ncccn1)c1ccc2c(c1)OCCC2c1ccc(C(F)(F)F)cc1O[C@H]1CCOC1 (stereo partly drawn) [Example-179, (R&S)—N-(pyrimidin-2-yl)-4-(2-(((S)-tetrahydrofuran-3-yl)oxy)-4-(trifluoromethyl)phenyl)chroman-7-sulfonamide]	64%	0.038 µM	–	–
O=S(=O)(Nc1cccc(F)n1)c1ccc2c(c1)OCCC2c1ccc(C(F)(F)F)cc1O[C@H]1CCOC1 (stereo partly drawn) [Example-180, (R&S)—N-(6-fluoropyridin-2-yl)-4-(2-(((S)-tetrahydrofuran-3-yl)oxy)-4-(trifluoromethyl)phenyl)chroman-7-sulfonamide]	–	0.831 µM	> 10 µM	–
O=S(=O)(Nc1cccc(F)n1)c1ccc2c(c1)OCCC2c1ccc(C(F)(F)F)cc1O[C@H]1CCOC1 (stereo partly drawn) [Example-181, (R&S)—N-(6-fluoropyridin-2-yl)-4-(2-(((S)-tetrahydrofuran-3-yl)oxy)-4-(trifluoromethyl)phenyl)chroman-7-sulfonamide]	43%	0.0009 µM	–	–
O=S(=O)(Nc1ncccn1)c1ccc2c(c1)OCCC2c1ccc(C(F)(F)F)cc1O[C@@H]1CCOC1 (stereo partly drawn) [Example-185, (S&R)—N-(pyrimidin-2-yl)-4-(2-(((R)-tetrahydrofuran-3-yl)oxy)-4-(trifluoromethyl)phenyl)chroman-7-sulfonamide]	–	1.02 µM	> 10 µM	–
O=S(=O)(Nc1ncccn1)c1ccc2c(c1)OCCC2c1ccc(C(F)(F)F)cc1O[C@@H]1CCOC1 (stereo partly drawn) [Example-186, (S&R)—N-(pyrimidin-2-yl)-4-(2-(((R)-tetrahydrofuran-3-yl)oxy)-4-(trifluoromethyl)phenyl)chroman-7-sulfonamide]	46%	0.083 µM	–	–
O=C(O)c1ccc(-c2cc(C(F)(F)F)ccc2[C@H]2CCOc3cc(S(=O)(=O)Nc4ncccn4)ccc32)cc1 [Example-188, (S&R)-2′-(7-(N-(pyrimidin-2-yl)sulfamoyl)chroman-4-yl)-5′-(trifluoromethyl)-[1,1′-biphenyl]-4-carboxylic acid]	–	0.067 µM	> 10 µM	–
O=C(O)c1ccc(-c2cc(C(F)(F)F)ccc2[C@@H]2CCOc3cc(S(=O)(=O)Nc4ncc(F)cn4)ccc32)cc1 [Example-189, (S&R)-2′-(7-(N-(5-fluoropyrimidin-2-yl)sulfamoyl)chroman-4-yl)-5′-(trifluoromethyl)-[1,1′-biphenyl]-4-carboxylic acid]	–	1.81 µM	> 10 µM	–
O=S(=O)(Nc1cccnn1)c1ccc2c(c1)OCC[C@H]2c1ccc(C(F)(F)F)cc1-c1ccc(F)cn1 [Example-199, (S&R)-4-(2-(5-fluoropyridin-2-yl)-4-(trifluoromethyl)phenyl)-N-(pyridazin-3-yl)chroman-7-sulfonamide]	–	0.355 µM	> 10 µM	–
O=S(=O)(Nc1cccnn1)c1ccc2c(c1)OCC[C@@H]2c1ccc(C(F)(F)F)cc1-c1ccc(F)cn1 [Example-200, (S&R)-4-(2-(5-fluoropyridin-2-yl)-4-(trifluoromethyl)phenyl)-N-(pyridazin-3-yl)chroman-7-sulfonamide]	–	0.0005 µM	> 10 µM	–
O=S(=O)(Nc1ncccn1)c1ccc2c(c1)OCC[C@H]2c1ccc(C(F)(F)F)cc1OC1COC1 [Example-216, (R&S)-4-(2-(oxetan-3-yloxy)-4-(trifluoromethyl)phenyl)-N-(pyrimidin-2-yl)chroman-7-sulfonamide]	–	2.73 µM	> 10 µM	–
O=S(=O)(Nc1ncccn1)c1ccc2c(c1)OCC[C@@H]2c1ccc(C(F)(F)F)cc1OC1COC1 [Example-217, (R&S)-4-(2-(oxetan-3-yloxy)-4-(trifluoromethyl)phenyl)-N-(pyrimidin-2-yl)chroman-7-sulfonamide]	50%	0.152 µM	–	–
O=S(=O)(Nc1ncccn1)c1ccc2c(c1)OCC[C@H]2c1ccc(C(F)(F)F)cc1OCCCF [Example-220, (S&R)-4-(2-(3-fluoropropoxy)-4-(trifluoromethyl)phenyl)-N-(pyrimidin-2-yl)chroman-7-sulfonamide]	–	–	> 10 µM	IC50 (Nav 1.7; read-out: Nav1.7 IC50 (bound given in μM)): > 10 µM
O=S(=O)(Nc1ncccn1)c1ccc2c(c1)OCC[C@@H]2c1ccc(C(F)(F)F)cc1OCCCF [Example-221, (S&R)-4-(2-(3-fluoropropoxy)-4-(trifluoromethyl)phenyl)-N-(pyrimidin-2-yl)chroman-7-sulfonamide]	–	0.042 µM	–	IC50 (Nav 1.5; read-out: Nav1.5 IC50): 1.47 µM
COc1cc(C(F)(F)F)ccc1[C@@H]1CCOc2cc(S(=O)(=O)Nc3ncccn3)ccc21 [Example-226, (S&R)-4-(2-methoxy-4-(trifluoromethyl)phenyl)-N-(pyrimidin-2-yl)chroman-7-sulfonamide]	86%	2.35 µM	–	–
COc1cc(C(F)(F)F)ccc1[C@H]1CCOc2cc(S(=O)(=O)Nc3ncccn3)ccc21 [Example-227, (S&R)-4-(2-methoxy-4-(trifluoromethyl)phenyl)-N-(pyrimidin-2-yl)chroman-7-sulfonamide]	–	0.177 µM	> 10 µM	–
COc1cc(C(F)(F)F)ccc1[C@@H]1CCOc2cc(S(=O)(=O)Nc3cccc(F)n3)ccc21 [Example-228, (S&R)—N-(6-fluoropyridin-2-yl)-4-(2-methoxy-4-(trifluoromethyl)phenyl)chroman-7-sulfonamide]	–	–	> 10 µM	Nav1.7 inhibition @ 10 μM (Nav 1.7): 55%
COc1cc(C(F)(F)F)ccc1[C@H]1CCOc2cc(S(=O)(=O)Nc3cccc(F)n3)ccc21 [Example-229, (S&R)—N-(6-fluoropyridin-2-yl)-4-(2-methoxy-4-(trifluoromethyl)phenyl)chroman-7-sulfonamide]	42%	0.156 µM	–	–
O=C1COCCN1c1cc(C(F)(F)F)ccc1[C@@H]1CCOc2cc(S(=O)(=O)Nc3ncccn3)ccc21 [Example-230, (S&R)-4-(2-(3-oxomorpholino)-4-(trifluoromethyl)phenyl)-N-(pyrimidin-2-yl)chroman-7-sulfonamide]	–	4.42 µM	> 10 µM	–
O=C1COCCN1c1cc(C(F)(F)F)ccc1[C@H]1CCOc2cc(S(=O)(=O)Nc3ncccn3)ccc21 [Example-231, (S&R)-4-(2-(3-oxomorpholino)-4-(trifluoromethyl)phenyl)-N-(pyrimidin-2-yl)chroman-7-sulfonamide]	–	0.559 µM	> 10 µM	–
O=S1(=O)CCN(c2cc(C(F)(F)F)ccc2[C@@H]2CCOc3cc(S(=O)(=O)Nc4ncccn4)ccc32)CC1 [Example-232, (S&R)-4-(2-(1,1-dioxidothiomorpholino)-4-(trifluoromethyl)phenyl)-N-(pyrimidin-2-yl)chroman-7-sulfonamide]	–	–	> 10 µM	Nav1.7 inhibition @ 10 μM (Nav 1.7): 36%
CCCc1cc(C(F)(F)F)ccc1[C@@H]1CCOc2cc(S(=O)(=O)Nc3ncccn3)ccc21 [Example-238, (S&R)-4-(2-propyl-4-(trifluoromethyl)phenyl)-N-(pyrimidin-2-yl)chroman-7-sulfonamide]	–	1.76 µM	> 10 µM	–
CCCc1cc(C(F)(F)F)ccc1[C@H]1CCOc2cc(S(=O)(=O)Nc3ncccn3)ccc21 [Example-239, (S&R)-4-(2-propyl-4-(trifluoromethyl)phenyl)-N-(pyrimidin-2-yl)chroman-7-sulfonamide]	62%	0.124 µM	–	–
CCCc1cc(C(F)(F)F)ccc1[C@@H]1CCOc2cc(S(=O)(=O)Nc3ncc(F)cn3)ccc21 [Example-240, (S&R)—N-(5-fluoropyrimidin-2-yl)-4-(2-propyl-4-(trifluoromethyl)phenyl)chroman-7-sulfonamide]	–	2.74 µM	> 10 µM	–
CCCc1cc(C(F)(F)F)ccc1[C@H]1CCOc2cc(S(=O)(=O)Nc3ncc(F)cn3)ccc21 [Example-241, (S&R)—N-(5-fluoropyrimidin-2-yl)-4-(2-propyl-4-(trifluoromethyl)phenyl)chroman-7-sulfonamide]	–	0.172 µM	> 10 µM	–
